From EP4755886A1 (Chengdu Chipscreen Pharmaceutical Ltd., priority 2023, dated 2025)

How the values were obtained:
MTAP^-/- HCT-116 cells = assay: Cell proliferation (MTS), MTAP-/- HCT-116; assay type: cell-based, human; settings: for Selectivity: HCT116 WT IC50 relative to HCT116 MTAP-/- IC50; for IC50: Homo sapiens, 240 h, MTAP-/- HCT-116, 10 days with compound, MTS reading, read-out: IC50 HCT116 MTAP-/-
Outline: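 MTAP-/- (CRISPR/Cas9 biallelic knockout) or wild-type HCT-116 cells seeded at 100 cells/well, treated next day with 8-point 3-fold dilutions (top 20 µM) for 10 days at 37 °C, 5% CO2. Viability read by MTS; IC50 from four-parameter logistic fit of inhibition rate vs log concentration.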

PK experiment in mice = settings: female, BALB/c, mouse, plasma, po, 10 mg/kg
Procedure: Experimental materials: the experimental animals were healthy adult female BALB/c mice (provided by Sichuan Vital River Laboratory Animal Technology Co., Ltd.).
Administration mode and sample collection in mice: BALB/c female mice received oral intragastrical administration (10 mg/kg, vehicle: 0.5% methylcellulose/0.2% Tween 80), and 60 µL of whole blood from the venous plexus of the fundus of the mice at different time points was collected at 0.25 h, 0.5 h, 1 h, 2 h, 4 h, 6 h, 8 h, and 24 h after administration and centrifuged at 4000 rpm for 6 min to collect plasma.
10 µL of mouse plasma sample was added to 190 µL of acetonitrile solution containing an internal standard to precipitate protein. The mixture was vortexed for 10 min and centrifuged at 4000 rpm for 10 min. The supernatant was collected and added to a 96-well plate. The samples were analyzed by LC-MS/MS. The drug concentrations in the plasma of mice at different time points after intragastric administration of the example compounds were measured by an LC-MS/MS method, and the related pharmacokinetic parameters were calculated, such that the pharmacokinetic behavior of the compounds in the mice was studied, and the pharmacokinetic characteristics were evaluated.

wild-type HCT-116 cells = assay: Cell proliferation (MTS), wild-type HCT-116; assay type: cell-based; settings: Homo sapiens, 240 h; wild-type HCT-116, 10 days with compound, MTS reading; read-out: IC50 HCT116 WT
Outline: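 Wild-type HCT-116 cells were seeded at 100 cells/well in McCoy's 5A/10% FBS. From day 1 they were treated with compound in 3-fold dilutions (initial 20 µM, 8 points) for 10 days at 37° C. Proliferation was read by MTS on day 11, and IC50 was obtained from a four-parameter logistic fit.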

hERG = target: T1, hERG (Homo sapiens, UniProt Q12809); assay: hERG test (Predictor hERG Fluorescence Polarization Assay Kit); assay type: binding; settings: for inhibition at 3.5 h, 10 µM: human, probe Predictor hERG Tracer Red, 10 µM test substance, three duplicate wells; for IC50: only 10 µM tested
T1 construct: purchased ThermoFisher Scientific PV5365
T1 sequence (Q12809 whole entry): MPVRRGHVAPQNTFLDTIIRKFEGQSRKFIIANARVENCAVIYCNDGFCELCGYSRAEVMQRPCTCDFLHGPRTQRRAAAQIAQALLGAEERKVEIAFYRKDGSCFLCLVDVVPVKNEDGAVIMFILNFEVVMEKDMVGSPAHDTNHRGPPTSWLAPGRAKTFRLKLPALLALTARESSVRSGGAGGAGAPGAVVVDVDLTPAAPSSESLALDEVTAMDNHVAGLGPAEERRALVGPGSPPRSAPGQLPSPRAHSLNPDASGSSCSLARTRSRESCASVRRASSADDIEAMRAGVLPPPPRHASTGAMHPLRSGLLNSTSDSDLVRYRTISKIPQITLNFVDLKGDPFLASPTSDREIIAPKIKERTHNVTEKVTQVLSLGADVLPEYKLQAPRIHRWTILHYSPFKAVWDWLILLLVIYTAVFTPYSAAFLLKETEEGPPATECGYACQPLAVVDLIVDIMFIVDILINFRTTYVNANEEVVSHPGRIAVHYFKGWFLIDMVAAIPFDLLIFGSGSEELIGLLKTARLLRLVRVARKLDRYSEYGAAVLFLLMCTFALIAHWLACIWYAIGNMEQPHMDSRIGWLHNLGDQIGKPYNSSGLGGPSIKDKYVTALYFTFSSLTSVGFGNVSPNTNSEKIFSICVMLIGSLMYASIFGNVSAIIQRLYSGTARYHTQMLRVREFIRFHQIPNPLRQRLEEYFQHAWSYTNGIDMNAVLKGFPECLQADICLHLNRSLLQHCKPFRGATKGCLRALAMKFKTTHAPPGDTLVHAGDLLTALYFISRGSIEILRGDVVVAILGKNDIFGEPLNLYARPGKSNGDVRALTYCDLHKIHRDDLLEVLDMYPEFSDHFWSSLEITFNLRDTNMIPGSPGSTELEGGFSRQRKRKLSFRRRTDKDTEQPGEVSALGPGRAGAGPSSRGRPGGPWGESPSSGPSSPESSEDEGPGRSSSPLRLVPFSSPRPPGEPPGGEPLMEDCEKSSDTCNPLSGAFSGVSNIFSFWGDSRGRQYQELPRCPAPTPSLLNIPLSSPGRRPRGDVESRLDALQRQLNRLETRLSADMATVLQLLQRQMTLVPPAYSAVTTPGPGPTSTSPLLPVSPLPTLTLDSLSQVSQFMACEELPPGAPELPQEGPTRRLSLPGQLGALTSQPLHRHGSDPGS
Procedure: Predictor™ hERG Fluorescence Polarization Assay Kit (ThermoFisher Scientific, PV5365).
The procedures in the kit instructions were followed: 4× Predictor™ hERG Tracer Red, 4× E-4031, and 4× test substance solutions (final assay concentration: 10 µM) were prepared in advance. 5 µL Predictor™ hERG FP Assay Buffer and 5 µL Predictor™ hERG Membrane were added sequentially to the Assay Blank group in a 384-well plate. 2.5 µL Predictor™ hERG FP Assay Buffer, 2.5 µL of 4× E-4031, and 2.5 µL of 4× test substance were added to the negative control group, the positive control group, and the test substance group, respectively, and then 5 µL Predictor™ hERG Membrane and 2.5 µL of 4× Predictor™ hERG Tracer Red were sequentially added. The total volume of the experimental system was 10 µL, and three duplicate wells were set for each group. After loading, the plate was gently tapped to mix well and incubated at room temperature (25 °C) in the dark for 3.5 h. After the incubation was completed, the fluorescence polarization value mP was measured on a microplate reader, and G Factor was 2.14.
The inhibition rate of the test substance was calculated using the following formula: [formula]

IC50 (MTAP^-/- HCT-116 cells) [µM] | AUC(0-t) (PK experiment in mice) [ng·h/mL] | Cmax (PK experiment in mice) [ng/mL] | IC50 (wild-type HCT-116 cells) [µM] | Structure (SMILES) | Selectivity (MTAP^-/- HCT-116 cells) | inhibition at 3.5 h, 10 µM (hERG) [%] | IC50 (hERG) [µM]
0.0037 | 26900 ± 7450 | 2670 ± 421 | 0.426 | CN(C(=O)c1cc2c(cc1F)nc(N)c1cnn(C)c12)[C@@H]1COc2cc(C#Cc3cnn(C4CC4)c3)ccc21 [Compound 12A, (S)-4-amino-N-(6-((1-cyclopropyl-1H-pyrazol-4-yl)ethynyl)-2,3-dihydrobenzofuran-3-yl)-7-fluoro-N,1-dimethyl-1H-pyrazolo[4,3-c]quinoline-8-carboxamide] | 115 | 22.4 | > 10
0.0087 | 12600 ± 1360 | 984 ± 123 | 1.75 | CN(C(=O)c1ccc2nc(N)c3cnn(C)c3c2c1)C1COc2cc(C#Cc3cnn(C(F)F)c3)ccc21 (centres unmarked) [Compound 30, 4-amino-N-(6-((1-(difluoromethyl)-1H-pyrazol-4-yl)ethynyl)-2,3-dihydrobenzofuran-3-yl)-N,1-dimethyl-1H-pyrazolo[4,3-c]quinoline-8-carboxamide] | 201 | – | –
0.02 | 20900 ± 8400 | 2670 ± 180 | 2.96 | CN(C(=O)c1cc2c3c(c(N)nc2cc1F)COC3)C1COc2cc(C#Cc3cnn(C)c3)ccc21 (centres unmarked) [Compound 39, 4-amino-7-fluoro-N-methyl-N-(6-((1-methyl-1H-pyrazol-4-yl)ethynyl)-2,3-dihydrobenzofuran-3-yl)-1,3-dihydrofuro[3,4-c]quinoline-8-carboxamide] | 148 | 23.8 | > 10
0.0058 | – | – | 1.46 | CN(C(=O)c1cc2c3c(c(N)nc2cc1Cl)COC3)C1COc2cc(C#Cc3cnn(C)c3)ccc21 (centres unmarked) [Compound 40, 4-amino-7-chloro-N-methyl-N-(6-((1-methyl-1H-pyrazol-4-yl)ethynyl)-2,3-dihydrobenzofuran-3-yl)-1,3-dihydrofuro[3,4-c]quinoline-8-carboxamide] | 252 | 22 | > 10
0.0059 | – | – | 0.654 | Cc1ncccc1C#Cc1ccc2c(c1)OCC2N(C)C(=O)c1cc2c(cc1F)nc(N)c1cnn(C)c12 (centres unmarked) [Compound 45, 4-amino-7-fluoro-N,1-dimethyl-N-(6-((2-methylpyridin-3-yl)ethynyl)-2,3-dihydrobenzofuran-3-yl)-1H-pyrazolo[4,3-c]quinoline-8-carboxamide] | 111 | 21 | > 10
0.0011 | – | – | 0.158 | CN1CCn2c(C#Cc3ccc4c(c3)OC[C@H]4N(C)C(=O)c3cc4c(cc3F)nc(N)c3cnn(C)c34)cnc2C1 [Compound 46A, (S)-4-amino-7-fluoro-N,1-dimethyl-N-(6-((7-methyl-5,6,7,8-tetrahydroimidazo[1,2-a]pyrazin-3-yl)ethynyl)-2,3-dihydrobenzofuran-3-yl)-1H-pyrazolo[4,3-c]quinoline-8-carboxamide] | 144 | 43.9 ± 18.8 | > 10
0.0032 | 14200 ± 2430 | 1500 ± 313 | 0.487 | Cc1c(C#Cc2ccc3c(c2)OC[C@H]3N(C)C(=O)c2cc3c4c(c(N)nc3cc2Cl)COC4)cnn1C [Compound 52A, (S)-4-amino-7-chloro-N-(6-((1,5-dimethyl-1H-pyrazol-4-yl)ethynyl)-2,3-dihydrobenzofuran-3-yl)-N-methyl-1,3-dihydrofuro[3,4-c]quinoline-8-carboxamide] | 152 | 10.4 ± 49.1 | > 10
0.008 | 10500 ± 2400 | 1810 ± 195 | 1 | Cc1ncccc1C#Cc1ccc2c(c1)OC[C@H]2N(C)C(=O)c1cc2c3c(c(N)nc2cc1Cl)COC3 [Compound 57A, (S)-4-amino-7-chloro-N-methyl-N-(6-((2-methylpyridin-3-yl)ethynyl)-2,3-dihydrobenzofuran-3-yl)-1,3-dihydrofuro[3,4-c]quinoline-8-carboxamide] | 125 | 14.2 ± 18 | > 10
0.007 | 22200 ± 2710 | 2080 ± 299 | 0.64 | CN(C(=O)c1cc2c3c(c(N)nc2cc1Cl)COC3)[C@@H]1COc2cc(C#Cc3cccnc3F)ccc21 [Compound 61A, (S)-4-amino-7-chloro-N-(6-((2-fluoropyridin-3-yl)ethynyl)-2,3-dihydrobenzofuran-3-yl)-N-methyl-1,3-dihydrofuro[3,4-c]quinoline-8-carboxamide] | 91 | – | –
0.002 | 23200 ± 3390 | 3830 ± 533 | 0.299 | CN(C(=O)c1cc2c(cc1F)nc(N)c1cnn(C)c12)[C@@H]1COc2cc(C#Cc3cnc4n3CCCC4)ccc21 [Compound 66A, (S)-4-amino-7-fluoro-N,1-dimethyl-N-(6-((5,6,7,8-tetrahydroimidazo[1,2-a]pyridin-3-yl)ethynyl)-2,3-dihydrobenzofuran-3-yl)-1H-pyrazolo[4,3-c]quinoline-8-carb oxamide] | 150 | 14.2 ± 14 | > 10
0.0027 | 14500 ± 1760 | 2810 ± 780 | 0.472 | CN(C(=O)c1cc2c3c(c(N)nc2cc1Cl)COC3)[C@@H]1COc2cc(C#Cc3cnc4n3CCCC4)ccc21 [Compound 74A, (S)-4-amino-7-chloro-N-methyl-N-(6-((5,6,7,8-tetrahydroimidazo[1,2-a]pyridin-3-yl)ethynyl)-2,3-dihydrobenzofuran-3-yl)-1,3-dihydrofuro [3,4-c] quinoline-8-carb oxamide] | 175 | – | –
0.004 | 27000 ± 4260 | 5010 ± 846 | 0.424 | CN(C(=O)c1cc2c3c(c(N)nc2cc1Cl)COC3)[C@@H]1COc2cc(C#Cc3cnc4n3CCC4)ccc21 [Compound 75A, (S)-4-amino-7-chloro-N-(6-((6,7-dihydro-5H-pyrrolo[1,2-a]imidazol-3-yl)ethynyl) -2,3-dihydrobenzofuran-3-yl)-N-methyl-1,3-dihydrofuro[3,4-c]quinoline-8-carbo xamide] | 106 | – | –
0.003 | – | – | 0.263 | CN(C(=O)c1cc2c(cc1F)nc(N)c1cnn(C)c12)[C@@H]1COc2cc(C#Cc3cnn(C4CCC4)c3)ccc21 [Compound 89A, (S)-4-amino-N-(6-((1-cyclobutyl-1H-pyrazol-4-yl)ethynyl)-2,3-dihydrobenzofuran-3-yl)-7-fluoro-N,1-dimethyl-1H-pyrazolo [4,3-c] quinoline-8-carboxamide] | 88 | – | –
0.012 | – | – | 1.18 | CN(C(=O)c1cc2c3c(c(N)nc2cc1Cl)COC3)[C@@H]1COc2cc(C#Cc3cnn(C4CCC4)c3)ccc21 [Compound 90A, (S)-4-amino-7-chloro-N-(6-((1-cyclobutyl-1H-pyrazol-4-yl)ethynyl)-2,3-dihydrobenzofuran-3-yl)-N-methyl-1,3-dihydrofuro[3,4-c]quinoline-8-carboxamide] | 98 | – | –
– | 5130 ± 2920 | 741 ± 601 | – | CN(C(=O)c1ccc2nc(N)c3cnn(C)c3c2c1)C1COc2cc(C3CC3)ccc21 (centres unmarked) [Reference Example 3, reference compound] | – | – | –
– | 3270 ± 588 | 649 ± 45 | – | CN(C(=O)c1cc2c3c(c(N)nc2cc1Cl)COC3)[C@@H]1COc2cc(Br)ccc21 [Reference Example 4, reference compound] | – | – | –
